# PMC12355554, “Development of novel mitochondrial pyruvate carrier inhibitors for breast cancer treatment” (The Journal of Biological Chemistry, 2025)
# Entries after “also recorded” stand apart in the source; their conditions may differ.
# Tests used:
# [1] = tested on: glutamate-driven respiration in 4T1 cells; assay: Seahorse glutamate-driven respiration in permeabilized 4T1 cells; format: cell-based, murine; details: Glu/Mal, candidate compounds 1 μM
# Source text: Although our initial experiments and previous literature illustrate the ability of the candidate compounds to inhibit Pyr-driven respiration, we sought to investigate the ability of candidate compounds to inhibit respiration fueled by other metabolic substrates, glutamate and succinate (Fig. 2). Glutamate, similar to Pyr oxidation, results in NADH equivalents that fuel complex I-mediated respiration, and succinate metabolism offers FADH2 for electrons in complex II-driven respiratory processes. […] To further validate the mode of action of the candidate compounds, a series of similar Seahorse experiments were employed (Fig. 2, A–C). In these experiments, 4T1 cells were first permeabilized and were then offered metabolic substrates Pyr (Pyr/Mal; Fig. 2A), glutamate (Glu/Mal, Fig. 2B), or succinate (Fig. 2C), and the resulting OCR was observed. As described previously, Mal and DCA were included in the substrate milieu of glutamate respiration experiments. […] To validate that inhibition of Pyr respiration is due to mitochondrial Pyr uptake and not other Pyr-processing enzymes (i.e., Pyr dehydrogenase), a parallel experiment using methyl pyruvate (MePyr) was employed (Fig. 2, E and F). MePyr is permeable to the mitochondrial membranes, where in the matrix, mitochondrial esterase hydrolysis activity provides Pyr.
# Permeabilized cell assays were performed using rPFO as described previously. 4T1 cells were seeded (20,000 cells/well) onto Seahorse XFe96 well plates and incubated overnight in growth media at 37 °C and 5% CO2 for adherence. On the day of the assay, growth media were aspirated and replaced with MAS buffer (70 mM sucrose, 220 mM mannitol, 10 mM potassium phosphate monobasic, 5 mM magnesium chloride, 2 mM Hepes, and 1 mM EGTA) after 3X rinse of growth media to remove serum and endogenous metabolic substrates, and incubated at 37 °C in a non-CO2 incubator. Respective inhibitor and substrate milieu's were prepared in MAS buffer for port injections A–D at 8X, 9X, 10X, and 11X the target cell concentrations to account for intrinsic dilution factor of in situ injections of each port. […] Final substrate concentrations for specific tests were as follows: (5 mM Pyr , 0.5 mM Mal, 2 mM DCA; 10 mM glutamate, 0.5 mM Mal, 2 mM DCA; 10 mM succinate, 2 μM rotenone; 20 mM methyl Pyr, 5 mM Pyr, 0.5 mM Mal, and 2 mM DCA). ATP rate assays and mitochondrial stress tests were performed according to the manufacturer's (Agilent) instructions.
# [2] = target: T1, mitochondrial pyruvate carrier (MPC) (Mus musculus, UniProt P63030+Q9D023); assay: Pyr-driven respiration in permeabilized 67NR cells; format: cell-based, murine
# T1 construct: 4T1 cells were seeded (20,000 cells/well) onto Seahorse XFe96 well plates; host or cells: 4T1 murine breast cancer cells, rPFO-permeabilized
# T1 sequence (P63030 1-109): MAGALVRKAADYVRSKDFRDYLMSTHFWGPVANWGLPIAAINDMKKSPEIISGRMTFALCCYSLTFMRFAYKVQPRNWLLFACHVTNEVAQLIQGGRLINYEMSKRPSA
# T1 sequence (Q9D023 1-127): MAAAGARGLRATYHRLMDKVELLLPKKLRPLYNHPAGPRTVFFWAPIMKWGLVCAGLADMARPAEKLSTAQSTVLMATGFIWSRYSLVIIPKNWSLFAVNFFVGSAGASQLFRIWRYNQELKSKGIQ
# [3] = tested on: 4T1 cells; assay: L-lactate accumulation assay, 4T1; details: MCT1-expressing 4T1 cells; 24 h
# Experimental: To test this, we assayed intracellular lactate accumulation following C5 treatment in MCT1-expressing 4T1 cells and MCT4-expressing MDA-MB-231 cells using commercially available lactate kits.
# On the third day, media were aspirated, and wells were rinsed twice with cold PBS. […] At this time, 1 ml of PBS was added to each well and underwent freeze–thaw lysis at −80 °C. Media in each well were aliquoted and centrifuged (16,000g, 10 min, 4 °C). The lysate supernatant was then aliquoted, and pellet was discarded. L-lactate concentration was then determined using Eton Biosciences L-Lactate assay kit 1 by mixing lysate sample with L-lactate assay solution in duplicate, incubating for 30 min (37 °C, 0% CO2) and measuring absorbance of enzyme produced INT formazan at 490 nm using a BioTek Synergy 2 plate reader. Absorbance values were compared with an L-lactate standard curve concomitantly ran with test samples to determine lactate concentration in each sample. Lactate concentrations were normalized to total protein using a Pierce Bicinchoninic Acid Protein Assay Kit.
# [4] = physchem; details: water
# Source text: Starting with the carboxylic acid 24, various salt forms were generated to increase the water solubility.
# [5] = tested on: 67NR; assay: MTT cell proliferation inhibition assay, 67NR; format: cell-based, murine; details: Mus musculus, 72 h, 3 days, average ± SEM
# Experimental: Confluent cell cultures were treated with trypsin and resuspended at 5 × 10^4 cells/ml. To a 96-well plate, 100 μl of the 5 × 10^4 cells/ml solution were added and allowed to incubate at 37 °C, 5% CO2 for 24 h. Compounds were then added and allowed to incubate for 3 days. […] Following the 4-h incubation with 3-(4,5-dimethylthiazol-2-yl)-2,5-diphenyltetrazolium bromide, 100 μl of SDS (0.1 g/ml, 0.01 N HCl) was added, and 96-well plates were allowed to incubate for an additional 4 h. […] Treatment absorbances are taken as percentages of the average untreated absorbances and plotted against log(concentration) in GraphPad Prism 10 (GraphPad Software, Inc) to generate effective concentration values where 50% of the cells are not proliferating (EC50).
# [6] = tested on: MPC or MCT expression levels; assay: Western blotting of MPC and MCT expression; format: cell-based; details: Western blot
# Experimental: After denaturation at 95 °C for 10 min in radioimmunoprecipitation buffer, protein concentration was determined and equilibrated using the bicinchoninic acid assay (ThermoScientific), and 20 μg of protein was separated by electrophoresis in 4 to 12% polyacrylamide gels. Proteins were electrophoretically transferred to polyvinylidene fluoride membranes for 90 min at 100 V and stained with Ponceau to verify transfer quality and equal protein loading. […] Santa Cruz, catalog no.: sc-365501, 1:1000 dilution; MCT4, Santa Cruz, catalog no.: sc-376140, 1:1000 dilution; MPC1, Cell Signaling, 1:1000 dilution, catalog no.: 14462; MPC2, Cell Signaling, 1:1000 dilution, catalog no.: 46141; […] TBST, 0.5% nonfat milk protein). Membranes were rinsed three times with TBST and incubated with the respective secondary goat antimouse IgG (1:10,000 dilution) or goat anti-rabbit IgG (1:10,000 dilution) horseradish peroxidase–conjugated antibodies (Cell Signaling). Membranes were again washed three times with TBST and exposed to SuperSignal 60 West luminol enhancer and stable peroxide solution (ThermoScientific) for 2 min. Chemiluminescent images were obtained using a LicorFC imager. Images shown are representative of two separate experiments obtained from independent biological samples.
# [7] = tested on: MPC1 and MPC2 KO 4T1 cells; assay: Pyr-driven respiration in CRISPR-Cas9 MPC1/MPC2 KO 4T1 cells; details: permeabilized MPC1/MPC2 KO 4T1 cells, FCCP stimulated
# [8] = Intrinsic CL in human liver microsomes; format: in vitro ADME
smiles,measurement,setting,value
"CN(Cc1ccc(C(F)(F)F)cc1)c1ccc2cc(C(=O)O)c(=O)oc2c1.NC(CO)(CO)CO [C5, 1,3-dihydroxy-2-(hydroxymethyl)propan-2-aminium 7-(methyl(4-(trifluoromethyl)benzyl)amino)-2-oxo-2H-chromene-3-carboxylate]",effect on glutamate-driven respiration,[1],does not alter; also recorded: did not alter
same,clinical observations after single oral dose,"oral 10, 25, and 40 mg/kg, 7 days",no signs of clinical toxicity
same,"gross pathology, including general cardiotoxicity, after organ resection","oral, end of study",no gross pathology
same,effect on pyruvate driven respiration,[2],inhibits
same,intracellular lactate accumulation,[3],potent accumulation of lactate
same,solubility,[4],10000 µg/mL
same,EC50,[5],48 ± 4.3 µM
same,effect on MPC or MCT expression levels,[6],does not alter
same,effects on Pyr-driven maximal respiration in MPC-KO lines,[7],largely diminished
same,increase in Clint compared with C3,[8]; human liver microsomes,two-fold
same,half-life,"[8]; human, liver microsomes, exceeding the experimental endpoints",> 2 h
